These results are taken from patent EP3509566B1, “COMPOUNDS FOR REDUCING CELLULAR MELANIN CONTENT” (Unilever N.V., priority 2016, dated 2018).

Read-outs that look alike come from different tables or passages of the source.

In data set [1] the test system is Neonatal foreskin primary human epidermal melanocytes. Kind of data set: Melanin content assay (OD405nm of cell lysate). The class given is cell-based. The procedure:
A set of indolyl compounds were purchased from SIGMA-ALDRICH as stocks of 10 mM in 100% DMSO. They were initially examined at 25 uM concentration in cell culture (Table 1) for their ability to reduce melanin content and then, at different doses (Table 2). Neonatal foreskin primary human epidermal melanocytes was sourced from Cascade Biologicals (labelled passage P0). Melanocytes were maintained in Medium 254CF (Cascade Cat. # M-254CF-500) supplemented with human melanocyte growth supplement (Cascade; Cat. # S-002-5), hereafter referred to as MGM. Cells were maintained at 37 °C in a humidified incubator with 5 % CO2 atmosphere. 50,000 cells were seeded in 24 well plate in MGM. After 24 hours, the cultures were treated with various concentrations of test materials and were left undisturbed for a further period of 72 hours. Comparative vehicle controls of 0.25 % (v/v) DMSO were also set up in parallel, simultaneously. At the end of the incubation period, the cell viability was determined using the calcein method. […] Cells were lysed by resuspension and incubation (60 °C/one hour.). Then this lysate was transferred to a fresh 384-well plate and measured OD405nm in a TECAN M1000 plate reader (estimate of relative melanin content). […] Percentage Melanin content was calculated as the ratio between OD405nm value of any sample to that of DMSO reference sample.

Data set [2] shares this test system. Briefly: Cell viability assay (calcein method). The class given is cell-based. To be noted: 72 hours. Here is the method:
(§1) A set of indolyl compounds were purchased from SIGMA-ALDRICH as stocks of 10 mM in 100% DMSO. They were initially examined at 25 uM concentration in cell culture (Table 1) for their ability to reduce melanin content and then, at different doses (Table 2). Neonatal foreskin primary human epidermal melanocytes was sourced from Cascade Biologicals (labelled passage P0). Melanocytes were maintained in Medium 254CF (Cascade Cat. # M-254CF-500) supplemented with human melanocyte growth supplement (Cascade; Cat. # S-002-5), hereafter referred to as MGM. Cells were maintained at 37 °C in a humidified incubator with 5 % CO2 atmosphere. 50,000 cells were seeded in 24 well plate in MGM. After 24 hours, the cultures were treated with various concentrations of test materials and were left undisturbed for a further period of 72 hours. Comparative vehicle controls of 0.25 % (v/v) DMSO were also set up in parallel, simultaneously. At the end of the incubation period, the cell viability was determined using the calcein method. Briefly, cell culture spent media was removed and cells washed once with 0.4 ml of 1x PBS-Ca-Mg solution. […] Plates were covered with aluminium foil and incubated for 30 minutes at 37 °C in the regular CO2 incubator. […] Percentage Melanin content was calculated as the ratio between OD405nm value of any sample to that of DMSO reference sample.

A short description of data set [3]: Cell viability assay (calcein method). It counts as cell-based, human. The note with it: human, epidermal melanocytes. Here is the method:
as §1

The mark [4] stands for this setting: Homo sapiens, Melanocyte, 72 h, 25 µM, 72 hours, Table 1, normalized melanin content, read-out: 100* (%Melanin/% Viability).
The mark [5] stands for this setting: Homo sapiens, Melanocyte, 72 h, 25 µM, 72 hours, Table 1, read-out: % reduction in Melanin.
Where [6] appears, read: Homo sapiens, Melanocyte, 72 h, 25 µM, 72 hours, Table 1, relative to DMSO, read-out: % Melanin.
[7] abbreviates: 25 µM, 72 hours, Table 1, 100 = 0.25% DMSO, read-out: % Viability.
[8] abbreviates: 25 µM, 72 hours, Table 2, fresh batch.
Where [9] appears, read: Homo sapiens, Melanocyte, 72 h, 25 µM, 72 hours, Table 2, fresh batch, read-out: 100* (% Melanin/%Viability).
The mark [10] stands for this setting: Homo sapiens, Melanocyte, 72 h, 25 µM, 72 hours, Table 2, fresh batch, read-out: % Melanin.
The mark [11] stands for this setting: Homo sapiens, Melanocyte, 72 h, 25 µM, 72 hours, Table 2, fresh batch, read-out: % reduction in Melanin.
[12] abbreviates: 3.125 µM, 72 hours, Table 2, fresh batch.
[13] abbreviates: 6.25 µM, 72 hours, Table 2, fresh batch.
Where [14] appears, read: 12.5 µM, 72 hours, Table 2, fresh batch.
The mark [15] stands for this setting: 50 µM, 72 hours, Table 2, fresh batch.

A word on the viability: it is a read-out of living cells in per cent, often relative to untreated cells. Regarding `CC(=O)NC(C)Cc1c[nH]c2ccccc12` (stereo not shown) [Compound #2, N-[2-(1H-indol-3-yl)-1-methylethyl]acetamide, reference compound], the “OD405nm (Melanin)” value in data set [1] (25 µM, 72 hours, Table 1) is on record as 0.108. For the same compound, the “melanin reduction (in words)” value in data set [1] (25 µM, Table 1) is given as “comparatively insignificant”. In addition, the activity at 25 µM came to 98% in data set [1] (setting [4]) and 96% in data set [1] (setting [6]). Besides, the inhibition at 25 µM in data set [1] (setting [5]) worked out at 2%. For the same compound, in data set [2] (25 µM, Table 1), the “Calcein Fluorescence” value is listed as 98 arbitrary unit. Also, in data set [3] (setting [7]), the viability at 72 h, 25 µM is 98%.

With `CC(=O)O.CC(Cc1c[nH]c2ccccc12)NC(=O)CN` (stereo not shown) [Compound #3, 2-amino-N-[2-(1H-indol-3-yl)-1-methylethyl]acetamide acetate], the “OD405nm (Melanin)” value in data set [1] (25 µM, 72 hours, Table 1) stood at 0.111. Besides, the “melanin reduction (in words)” value in data set [1] (25 µM, Table 1) is listed as “significant melanin reduction”. In addition, the figures for the activity at 25 µM in data set [1] (setting [4]) and in data set [1] (setting [6]) were 89% and 99%, respectively. For the same compound, the inhibition at 25 µM in data set [1] (setting [5]) amounted to 11%. In addition, in data set [2] (25 µM, Table 1), the “Calcein Fluorescence” value was 111 arbitrary unit. Moreover, in data set [3] (setting [7]), the viability at 72 h, 25 µM is 111%.

On to `O=c1cc(CO)occ1O` [Kojic acid, reference compound], for which the “OD405nm (Melanin)” value is 0.177 in data set [1] (setting [8]); 0.152 in data set [1] (250 µM, 72 hours, Table 2, fresh batch); 0.139 in data set [1] (500 µM, 72 hours, Table 2, fresh batch). For the same compound, the activity at 25 µM came out at 99.3% in data set [1] (setting [9]) and 101% in data set [1] (setting [10]). Moreover, the inhibition at 25 µM in data set [1] (setting [11]) was determined as 0.7%. Also, the activity at 250 µM came to 90.4% in data set [1] (Homo sapiens, Melanocyte, 72 h, 250 µM, 72 hours, Table 2, fresh batch, read-out: 100* (% Melanin/%Viability)) and 87% in data set [1] (Homo sapiens, Melanocyte, 72 h, 250 µM, 72 hours, Table 2, fresh batch, read-out: % Melanin). Besides, the inhibition at 250 µM in data set [1] (Homo sapiens, Melanocyte, 72 h, 250 µM, 72 hours, Table 2, fresh batch, read-out: % reduction in Melanin) came to 9.6%. Besides, the activity at 500 µM in data set [1] (Homo sapiens, Melanocyte, 72 h, 500 µM, 72 hours, Table 2, fresh batch, read-out: 100* (% Melanin/%Viability)) came out at 83.3%; in data set [1] (Homo sapiens, Melanocyte, 72 h, 500 µM, 72 hours, Table 2, fresh batch, read-out: % Melanin), 80%. Also, the inhibition at 500 µM in data set [1] (Homo sapiens, Melanocyte, 72 h, 500 µM, 72 hours, Table 2, fresh batch, read-out: % reduction in Melanin) was 16.7%. Moreover, in data set [3] (% Viability), the viability at 72 h, 25 µM is 102%. The viability at 72 h, 250 µM in data set [3] (% Viability) is 96%. Also, the viability at 72 h, 500 µM in data set [3] (% Viability) was 96%.

Consider `CC(Cc1c[nH]c2ccccc12)NC(=O)OCCCl` (stereo not shown) [Compound #1, 2-chloroethyl [2-(1H-indol-3-yl)-1-methylethyl] carbamate], for which the “% reduction in Melanin” value in data set [1] (setting [12]) was “Nil”. Besides, the “OD405nm (Melanin)” value in data set [1] (setting [12]) is on record as 0.168; in data set [1] (setting [13]) it was 0.146; in data set [1] (setting [14]), 0.134; in data set [1] (25 µM, 72 hours, Table 1), 0.093; in data set [1] (setting [8]) it was 0.122; in data set [1] (setting [15]), 0.103. Besides, in data set [1] (25 µM, Table 1), the “melanin reduction (in words)” value is reported as “significant melanin reduction”. Also, the activity at 3.125 µM in data set [1] (Homo sapiens, Melanocyte, 72 h, 3.125 µM, 72 hours, Table 2, fresh batch, read-out: 100* (% Melanin/%Viability)) is 102%; in data set [1] (Homo sapiens, Melanocyte, 72 h, 3.125 µM, 72 hours, Table 2, fresh batch, read-out: % Melanin) it was 96%. In addition, the activity at 6.25 µM was 85.9% in data set [1] (Homo sapiens, Melanocyte, 72 h, 6.25 µM, 72 hours, Table 2, fresh batch, read-out: 100* (% Melanin/%Viability)) and 83% in data set [1] (Homo sapiens, Melanocyte, 72 h, 6.25 µM, 72 hours, Table 2, fresh batch, read-out: % Melanin). In addition, the inhibition at 6.25 µM in data set [1] (Homo sapiens, Melanocyte, 72 h, 6.25 µM, 72 hours, Table 2, fresh batch, read-out: % reduction in Melanin) came to 14.1%. For the same compound, the activity at 12.5 µM in data set [1] (Homo sapiens, Melanocyte, 72 h, 12.5 µM, 72 hours, Table 2, fresh batch, read-out: 100* (% Melanin/%Viability)) was found to be 82.4%; in data set [1] (Homo sapiens, Melanocyte, 72 h, 12.5 µM, 72 hours, Table 2, fresh batch, read-out: % Melanin) it was 77%. Moreover, the inhibition at 12.5 µM in data set [1] (Homo sapiens, Melanocyte, 72 h, 12.5 µM, 72 hours, Table 2, fresh batch, read-out: % reduction in Melanin) is 17.6%. Moreover, the activity at 25 µM in data set [1] (setting [4]) is 87%; in data set [1] (setting [6]), 83%; in data set [1] (setting [9]), 74.7%; in data set [1] (setting [10]), 70%. Besides, the inhibition at 25 µM in data set [1] (setting [5]) amounted to 13%; in data set [1] (setting [11]) it was 25.3%. Also, the activity at 50 µM in data set [1] (Homo sapiens, Melanocyte, 72 h, 50 µM, 72 hours, Table 2, fresh batch, read-out: 100* (% Melanin/%Viability)) came out at 66.8%; in data set [1] (Homo sapiens, Melanocyte, 72 h, 50 µM, 72 hours, Table 2, fresh batch, read-out: % Melanin), 59%. The inhibition at 50 µM in data set [1] (Homo sapiens, Melanocyte, 72 h, 50 µM, 72 hours, Table 2, fresh batch, read-out: % reduction in Melanin) was found to be 33.2%. The “efficacy compared to Kojic acid (in words)” value in data set [1] (various doses, Table 2) was “more efficacious at concentrations much lower than Kojic acid”. Moreover, the “Calcein Fluorescence” value is listed as 94 arbitrary units in data set [2] (3.125 µM, Table 2, fresh batch); 96.6 arbitrary units in data set [2] (6.25 µM, Table 2, fresh batch); 93.4 arbitrary units in data set [2] (12.5 µM, Table 2, fresh batch); 95 arbitrary unit in data set [2] (25 µM, Table 1); 93.7 arbitrary units in data set [2] (25 µM, Table 2, fresh batch of melanocytes); 88.3 arbitrary units in data set [2] (50 µM, Table 2, fresh batch). The viability at 72 h, 3.125 µM in data set [3] (setting [12]) is 94%. The viability at 72 h, 6.25 µM in data set [3] (setting [13]) is 96.6%. The viability at 72 h, 12.5 µM in data set [3] (setting [14]) was 93.4%. Besides, the viability at 72 h, 25 µM in data set [3] (setting [7]) was 95%; in data set [3] (25 µM, 72 hours, Table 2, fresh batch, read-out: % Viability), 93.7%. Moreover, the viability at 72 h, 50 µM in data set [3] (setting [15]) is 88.3%.
